Among the targets are D(3) dopamine receptor (Homo sapiens, UniProt P35462); Adenosine receptor A2a (Homo sapiens, UniProt P29274); Motilin receptor (Homo sapiens, UniProt O43193); Melanocortin receptor 3 (Homo sapiens, UniProt P41968).
Assay [1] deals with T1, Cholecystokinin receptor type A (Homo sapiens, UniProt P32238).
T1 sequence (P32238 whole entry): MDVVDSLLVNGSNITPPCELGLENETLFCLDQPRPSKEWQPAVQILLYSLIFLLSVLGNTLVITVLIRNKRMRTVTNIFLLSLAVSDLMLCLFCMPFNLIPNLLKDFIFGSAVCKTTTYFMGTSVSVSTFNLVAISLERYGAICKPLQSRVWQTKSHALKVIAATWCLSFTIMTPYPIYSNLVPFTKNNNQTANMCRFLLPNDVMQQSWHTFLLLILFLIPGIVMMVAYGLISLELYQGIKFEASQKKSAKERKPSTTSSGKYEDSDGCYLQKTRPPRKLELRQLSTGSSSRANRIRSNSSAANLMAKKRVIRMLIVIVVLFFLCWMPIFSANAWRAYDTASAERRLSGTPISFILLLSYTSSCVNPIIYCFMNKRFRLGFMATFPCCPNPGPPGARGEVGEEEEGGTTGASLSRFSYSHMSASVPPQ

Assay [2] has as its target Beta-1 adrenergic receptor (Homo sapiens, UniProt P08588). Type of assay: functional.
In assay [3] the target is Neuronal acetylcholine receptor subunit alpha-4 (Homo sapiens, UniProt P43681).
Assay [4] addresses T2, Alpha-2C adrenergic receptor (Homo sapiens, UniProt P18825).
T2 sequence (P18825 whole entry): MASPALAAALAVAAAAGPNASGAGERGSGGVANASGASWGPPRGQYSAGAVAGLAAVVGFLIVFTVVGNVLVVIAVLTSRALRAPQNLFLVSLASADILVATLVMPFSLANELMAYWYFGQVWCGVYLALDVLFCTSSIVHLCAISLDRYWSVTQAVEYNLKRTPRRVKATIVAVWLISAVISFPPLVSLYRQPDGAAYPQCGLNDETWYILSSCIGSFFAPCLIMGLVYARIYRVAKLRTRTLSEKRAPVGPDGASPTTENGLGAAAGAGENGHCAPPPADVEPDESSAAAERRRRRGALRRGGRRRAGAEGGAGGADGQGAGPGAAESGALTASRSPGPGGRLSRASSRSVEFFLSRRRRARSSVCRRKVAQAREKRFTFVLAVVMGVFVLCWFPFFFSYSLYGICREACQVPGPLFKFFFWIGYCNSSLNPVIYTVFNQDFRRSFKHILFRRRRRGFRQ
Type of assay: functional.

For another assay, the target named is T3, Adenosine receptor A1 (Homo sapiens, UniProt P30542).
T3 sequence (P30542 whole entry): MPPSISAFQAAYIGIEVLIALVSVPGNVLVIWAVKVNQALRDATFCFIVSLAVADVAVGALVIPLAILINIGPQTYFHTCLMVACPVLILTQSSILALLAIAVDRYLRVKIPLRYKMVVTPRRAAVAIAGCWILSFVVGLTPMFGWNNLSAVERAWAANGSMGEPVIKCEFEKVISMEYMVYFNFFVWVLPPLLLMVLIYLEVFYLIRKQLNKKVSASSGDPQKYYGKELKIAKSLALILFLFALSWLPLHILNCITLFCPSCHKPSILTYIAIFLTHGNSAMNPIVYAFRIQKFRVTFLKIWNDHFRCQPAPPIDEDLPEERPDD

The target in assay [5] is T4, Alpha-2A adrenergic receptor (Homo sapiens, UniProt P08913).
T4 sequence (P08913 whole entry): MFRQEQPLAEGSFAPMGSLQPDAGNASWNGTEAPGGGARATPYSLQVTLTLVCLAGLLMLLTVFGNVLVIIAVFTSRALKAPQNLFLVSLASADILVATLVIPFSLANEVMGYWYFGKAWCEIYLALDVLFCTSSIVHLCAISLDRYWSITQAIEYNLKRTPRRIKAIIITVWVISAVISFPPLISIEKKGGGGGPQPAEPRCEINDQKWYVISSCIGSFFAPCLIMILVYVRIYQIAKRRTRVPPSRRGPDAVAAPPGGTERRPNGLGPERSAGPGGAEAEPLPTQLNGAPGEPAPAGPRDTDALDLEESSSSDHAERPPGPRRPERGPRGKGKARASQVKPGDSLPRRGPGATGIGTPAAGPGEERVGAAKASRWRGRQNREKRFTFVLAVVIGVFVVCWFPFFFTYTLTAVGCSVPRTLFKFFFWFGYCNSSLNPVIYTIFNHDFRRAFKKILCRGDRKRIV
Type of assay: functional, cell-based.

The target in assay [6] is 5-hydroxytryptamine receptor 2B (Homo sapiens, UniProt P41595). Type of assay: functional, cell-based.
Assay [7] has as its target T5, Muscarinic acetylcholine receptor M2 (Homo sapiens, UniProt P08172).
T5 sequence (P08172 whole entry): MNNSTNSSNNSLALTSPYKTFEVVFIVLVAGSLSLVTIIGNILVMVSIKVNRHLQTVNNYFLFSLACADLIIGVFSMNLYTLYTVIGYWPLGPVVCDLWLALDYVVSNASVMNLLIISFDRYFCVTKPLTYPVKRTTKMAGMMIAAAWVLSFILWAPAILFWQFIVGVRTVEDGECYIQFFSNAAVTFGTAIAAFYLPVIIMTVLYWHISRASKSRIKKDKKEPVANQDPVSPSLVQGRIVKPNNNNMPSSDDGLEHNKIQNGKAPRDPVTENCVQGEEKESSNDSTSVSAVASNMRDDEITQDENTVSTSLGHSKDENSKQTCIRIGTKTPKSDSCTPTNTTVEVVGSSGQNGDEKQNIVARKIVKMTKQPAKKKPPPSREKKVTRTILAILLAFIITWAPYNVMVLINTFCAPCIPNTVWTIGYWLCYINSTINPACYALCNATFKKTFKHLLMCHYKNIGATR
The assay is classed as functional, cell-based.

Assay [8] has as its target Sodium-dependent dopamine transporter (Homo sapiens, UniProt Q01959).
Another assay addresses Bile salt export pump (Homo sapiens, UniProt O95342). Type of assay: functional.
In assay [9] the target is Sodium-dependent noradrenaline transporter (Homo sapiens, UniProt P23975).
Assay [10] addresses T4, Alpha-2A adrenergic receptor. The assay is classed as functional, cell-based. This is another data set of the same source.
For assay [11], the target named is Voltage-gated inwardly rectifying potassium channel KCNH2 (Homo sapiens, UniProt Q12809). The assay is classed as functional. Particulars: read-out: AC50.

What is called AC50 is the concentration at which the activity in the assay is half-maximal.
Note: assay procedure not described here.

Chain of Sodium-dependent noradrenaline transporter (P23975 whole entry): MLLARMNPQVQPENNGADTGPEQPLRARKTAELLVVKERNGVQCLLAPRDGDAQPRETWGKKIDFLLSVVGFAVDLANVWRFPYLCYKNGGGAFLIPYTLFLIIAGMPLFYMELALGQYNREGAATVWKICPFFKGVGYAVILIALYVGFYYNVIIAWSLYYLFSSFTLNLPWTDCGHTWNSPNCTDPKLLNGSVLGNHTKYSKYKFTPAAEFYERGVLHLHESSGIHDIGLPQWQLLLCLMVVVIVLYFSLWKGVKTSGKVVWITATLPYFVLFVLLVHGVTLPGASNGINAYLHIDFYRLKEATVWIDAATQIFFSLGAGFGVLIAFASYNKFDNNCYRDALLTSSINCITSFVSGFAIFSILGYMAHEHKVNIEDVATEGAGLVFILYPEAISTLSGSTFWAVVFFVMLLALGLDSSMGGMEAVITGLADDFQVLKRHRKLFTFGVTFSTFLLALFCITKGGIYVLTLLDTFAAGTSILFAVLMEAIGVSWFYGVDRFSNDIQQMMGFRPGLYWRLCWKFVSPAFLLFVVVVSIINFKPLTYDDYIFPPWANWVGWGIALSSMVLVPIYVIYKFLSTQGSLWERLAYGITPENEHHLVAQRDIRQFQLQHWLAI
Chain of Neuronal acetylcholine receptor subunit alpha-4 (P43681 whole entry): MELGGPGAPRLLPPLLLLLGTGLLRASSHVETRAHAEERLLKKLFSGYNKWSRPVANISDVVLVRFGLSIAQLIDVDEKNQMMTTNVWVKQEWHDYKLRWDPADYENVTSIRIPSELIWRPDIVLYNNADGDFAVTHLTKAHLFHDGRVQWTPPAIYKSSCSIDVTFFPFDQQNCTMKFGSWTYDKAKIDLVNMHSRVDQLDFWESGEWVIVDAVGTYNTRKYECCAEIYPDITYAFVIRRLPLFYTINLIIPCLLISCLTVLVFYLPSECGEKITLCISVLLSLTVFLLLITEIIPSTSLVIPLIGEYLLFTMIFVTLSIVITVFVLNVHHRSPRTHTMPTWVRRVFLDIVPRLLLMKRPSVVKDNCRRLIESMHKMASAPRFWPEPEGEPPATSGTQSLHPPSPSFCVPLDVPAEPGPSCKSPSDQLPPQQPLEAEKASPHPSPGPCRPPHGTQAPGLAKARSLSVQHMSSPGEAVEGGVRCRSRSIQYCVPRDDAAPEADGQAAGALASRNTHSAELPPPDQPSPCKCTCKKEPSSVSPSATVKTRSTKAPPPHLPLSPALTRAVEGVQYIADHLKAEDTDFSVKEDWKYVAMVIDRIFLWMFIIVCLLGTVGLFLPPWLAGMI
Chain of D(3) dopamine receptor (P35462 whole entry): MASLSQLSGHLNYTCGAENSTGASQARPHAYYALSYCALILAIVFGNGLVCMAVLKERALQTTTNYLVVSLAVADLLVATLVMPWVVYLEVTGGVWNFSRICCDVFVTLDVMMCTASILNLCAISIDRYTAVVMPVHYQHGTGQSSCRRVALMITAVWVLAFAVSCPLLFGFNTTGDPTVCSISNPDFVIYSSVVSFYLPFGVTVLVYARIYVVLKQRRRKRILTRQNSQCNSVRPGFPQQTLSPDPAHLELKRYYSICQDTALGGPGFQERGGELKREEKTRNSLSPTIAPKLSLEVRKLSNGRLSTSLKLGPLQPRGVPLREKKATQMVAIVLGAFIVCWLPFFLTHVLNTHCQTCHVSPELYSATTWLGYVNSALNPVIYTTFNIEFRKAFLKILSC
Chain of Bile salt export pump (O95342 whole entry): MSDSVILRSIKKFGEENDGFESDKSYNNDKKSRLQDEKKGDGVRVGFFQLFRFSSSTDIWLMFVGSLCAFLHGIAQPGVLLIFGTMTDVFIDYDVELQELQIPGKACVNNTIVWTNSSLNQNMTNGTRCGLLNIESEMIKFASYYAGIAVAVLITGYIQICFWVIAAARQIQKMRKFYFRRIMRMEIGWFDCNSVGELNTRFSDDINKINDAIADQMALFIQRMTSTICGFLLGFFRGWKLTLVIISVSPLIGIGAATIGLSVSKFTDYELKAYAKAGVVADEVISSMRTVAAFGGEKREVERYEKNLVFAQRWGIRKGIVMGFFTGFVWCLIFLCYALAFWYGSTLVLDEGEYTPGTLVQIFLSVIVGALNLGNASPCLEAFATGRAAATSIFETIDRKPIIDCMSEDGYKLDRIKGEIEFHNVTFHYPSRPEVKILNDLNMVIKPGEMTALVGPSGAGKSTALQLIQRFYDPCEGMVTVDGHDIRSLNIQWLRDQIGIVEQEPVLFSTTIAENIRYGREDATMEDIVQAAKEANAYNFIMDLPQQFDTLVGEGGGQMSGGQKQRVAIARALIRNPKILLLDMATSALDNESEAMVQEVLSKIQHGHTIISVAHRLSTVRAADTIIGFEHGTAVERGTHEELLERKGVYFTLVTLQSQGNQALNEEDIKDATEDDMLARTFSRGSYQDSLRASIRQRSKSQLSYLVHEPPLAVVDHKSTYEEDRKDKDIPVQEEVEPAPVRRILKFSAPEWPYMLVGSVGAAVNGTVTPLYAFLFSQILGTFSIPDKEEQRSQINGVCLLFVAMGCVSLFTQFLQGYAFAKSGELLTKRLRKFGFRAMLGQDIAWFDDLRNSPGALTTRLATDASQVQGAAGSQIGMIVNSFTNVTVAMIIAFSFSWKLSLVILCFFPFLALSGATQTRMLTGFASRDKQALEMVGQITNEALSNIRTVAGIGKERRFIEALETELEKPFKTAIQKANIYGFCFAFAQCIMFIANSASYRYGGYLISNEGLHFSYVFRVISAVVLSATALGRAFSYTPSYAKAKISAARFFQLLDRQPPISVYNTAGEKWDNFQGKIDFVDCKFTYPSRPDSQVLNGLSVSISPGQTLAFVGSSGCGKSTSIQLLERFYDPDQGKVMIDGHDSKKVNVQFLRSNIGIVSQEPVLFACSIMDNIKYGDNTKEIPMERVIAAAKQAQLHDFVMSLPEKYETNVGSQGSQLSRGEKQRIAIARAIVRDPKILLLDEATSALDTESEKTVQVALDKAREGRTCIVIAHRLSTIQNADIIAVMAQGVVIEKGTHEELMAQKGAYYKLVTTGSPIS
Chain of Melanocortin receptor 3 (P41968 whole entry): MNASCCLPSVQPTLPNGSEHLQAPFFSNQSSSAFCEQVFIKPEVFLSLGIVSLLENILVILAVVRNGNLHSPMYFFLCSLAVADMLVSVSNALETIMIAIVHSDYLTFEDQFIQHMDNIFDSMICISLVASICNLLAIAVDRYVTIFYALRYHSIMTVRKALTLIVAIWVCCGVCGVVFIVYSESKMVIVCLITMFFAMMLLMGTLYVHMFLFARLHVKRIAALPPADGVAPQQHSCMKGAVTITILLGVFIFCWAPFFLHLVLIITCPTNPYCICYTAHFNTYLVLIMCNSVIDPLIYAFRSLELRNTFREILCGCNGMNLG
Chain of Adenosine receptor A2a (P29274 whole entry): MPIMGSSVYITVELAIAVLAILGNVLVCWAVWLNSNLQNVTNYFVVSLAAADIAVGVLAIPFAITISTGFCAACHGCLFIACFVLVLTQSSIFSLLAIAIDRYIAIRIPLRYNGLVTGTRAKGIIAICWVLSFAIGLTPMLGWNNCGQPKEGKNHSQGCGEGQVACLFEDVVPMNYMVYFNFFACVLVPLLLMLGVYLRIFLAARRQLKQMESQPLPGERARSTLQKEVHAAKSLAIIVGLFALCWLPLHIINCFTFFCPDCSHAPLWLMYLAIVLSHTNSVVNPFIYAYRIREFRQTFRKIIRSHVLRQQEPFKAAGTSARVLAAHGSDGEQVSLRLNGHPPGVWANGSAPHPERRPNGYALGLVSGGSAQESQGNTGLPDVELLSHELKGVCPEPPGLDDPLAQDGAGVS
Chain of Beta-1 adrenergic receptor (P08588 whole entry): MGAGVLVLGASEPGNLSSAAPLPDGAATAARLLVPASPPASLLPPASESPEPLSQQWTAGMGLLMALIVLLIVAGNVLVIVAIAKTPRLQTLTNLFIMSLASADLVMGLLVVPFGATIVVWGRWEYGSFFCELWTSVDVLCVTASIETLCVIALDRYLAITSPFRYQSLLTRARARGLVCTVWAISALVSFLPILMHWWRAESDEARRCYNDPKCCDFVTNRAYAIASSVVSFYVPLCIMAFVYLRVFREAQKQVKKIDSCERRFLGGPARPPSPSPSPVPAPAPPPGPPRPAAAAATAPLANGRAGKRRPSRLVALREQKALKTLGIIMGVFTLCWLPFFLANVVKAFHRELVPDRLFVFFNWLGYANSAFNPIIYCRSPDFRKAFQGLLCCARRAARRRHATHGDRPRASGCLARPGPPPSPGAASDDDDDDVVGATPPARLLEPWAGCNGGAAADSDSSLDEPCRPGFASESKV
Chain of Motilin receptor (O43193 whole entry): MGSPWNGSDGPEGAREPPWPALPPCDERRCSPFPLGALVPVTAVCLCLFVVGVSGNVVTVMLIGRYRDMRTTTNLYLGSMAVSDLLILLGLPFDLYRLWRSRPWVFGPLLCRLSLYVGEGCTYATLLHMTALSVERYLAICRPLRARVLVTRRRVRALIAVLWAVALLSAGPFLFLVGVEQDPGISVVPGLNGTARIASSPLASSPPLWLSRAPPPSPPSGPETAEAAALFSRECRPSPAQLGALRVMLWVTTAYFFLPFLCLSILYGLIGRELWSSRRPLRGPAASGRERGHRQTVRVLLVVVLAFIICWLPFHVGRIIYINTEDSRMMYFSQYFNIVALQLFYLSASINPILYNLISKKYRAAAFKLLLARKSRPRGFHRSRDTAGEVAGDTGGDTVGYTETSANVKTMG

On to `CC[C@H]1OC(=O)[C@H](C)[C@@H](O[C@H]2C[C@@](C)(OC)[C@@H](O)[C@H](C)O2)[C@H](C)[C@@H](O[C@@H]2O[C@H](C)C[C@H](N(C)C)[C@H]2O)[C@](C)(O)C[C@@H](C)CN(C)[C@H](C)[C@@H](O)[C@]1(C)O` [AZITHROMYCIN], for which the concentration at half-maximal activity (AC50) in assay [1] is over 30 µM; in assay [2], over 10 µM; in assay [3], over 10 µM; in assay [4], over 10 µM; on D(3) dopamine receptor it was over 10 µM; on Adenosine receptor A1, over 30 µM. For the same molecule, the AC50 at Adenosine receptor A2a is over 30 µM; in assay [5] it was over 10 µM; in assay [6], over 10 µM; in assay [7], over 10 µM; in [8], over 10 µM; on Bile salt export pump it was 200 µM. Further, the AC50 in assay [9] is over 10 µM; on Motilin receptor, over 10 µM; in assay [10], over 10 µM; on Melanocortin receptor 3, over 30 µM; in assay [11], over 30 µM.
Turning to `CC1(C)NC(=O)N(c2ccc([N+](=O)[O-])c(C(F)(F)F)c2)C1=O` [NILUTAMIDE], the AC50 (in assay [1]; in [2]; in [3]; in [4]; on D(3) dopamine receptor; at Adenosine receptor A1) was over 30 µM in each case. For the same molecule, the AC50 on Adenosine receptor A2a was over 30 µM; in assay [5] it was over 30 µM; in assay [6] it was over 30 µM; in assay [7], over 30 µM; in assay [8], over 30 µM; on Bile salt export pump, over 300 µM. The AC50 (in assay [9]; at Motilin receptor; in assay [10]; on Melanocortin receptor 3; in assay [11]) was over 30 µM throughout.
Consider `O=C1Nc2ccc(Cl)cc2[C@@](C#CC2CC2)(C(F)(F)F)O1` [EFAVIRENZ], for which the AC50 is over 30 µM in assay [1]; 19 µM in assay [2]; over 30 µM in assay [3]; over 30 µM in [4]; over 30 µM at D(3) dopamine receptor; over 30 µM at Adenosine receptor A1. The half-maximal activity concentration (AC50) on Adenosine receptor A2a is over 30 µM; in [5] it was over 10 µM; in assay [6], over 10 µM; in assay [7], over 10 µM; in assay [8], 18 µM; at Bile salt export pump, 110 µM. For the same molecule, the AC50 in assay [9] was 15 µM; on Motilin receptor it was over 30 µM; in assay [10], over 10 µM; at Melanocortin receptor 3 it was over 30 µM; in assay [11] it was over 30 µM.

The values above are taken from ChEMBL document CHEMBL5291721, “A preclinical secondary pharmacology resource illuminates target-adverse drug reaction associations of marketed drugs” (Nat Commun, 2023).
